Measured values from US20230157998A1, “Methods of Inhibiting SARS-CoV-2 Replication and Treating Corona Virus Disease 2019” (Pfizer Inc., priority 2020, published 2023).
≈ marks a conversion by molar mass, not a printed value. Read-outs that look alike come from different tables or passages of the source.

How the values were obtained:
SARS-CoV-2 USA-WA1/2020 [1] = experiment: microbe, parasite or virus in culture; assay type: cell-based
[2] = Assay over 7 days, 80 mg/mL SBE-β-CD with PEG400/ethanol (F10); conditions: ~3:1 PEG400:ethanol (1.5-6.0% v/v), 2, 4, 6 and 8 mg/mL PF-00835231, ambient
SARS-CoV-2 3CLpro = SARS-CoV-2 3CLpro (Severe acute respiratory syndrome coronavirus 2, UniProt P0DTD1); experiment: Thermal-shift assay; conditions: n=8; 55.9+/−[…] C. (n=16) without compound
physchem [3] = conditions: 25 °C, pH 5, aqueous buffer, thermodynamic from solid, Saturated solubility for PF-00835231 at 25° C.
[4] = system: SARS-CoV-2 USA-NYU-VC-003/2020; experiment: In vitro drug efficacy in A549+ACE2 cells; assay type: cell-based; conditions: Severe acute respiratory syndrome coronavirus 2, 24 hours post infection
[5] = system: CYP1A2, 2B6, 2C8, 2C9, 2C19, 2D6, and 3A; conditions: read-out: IC50, reversible inhibition of CYP enzymes; probe substrates in pooled HLM
[6] = pH 7.4
Freeze-thaw experiment = conditions: solutions of the order-of-addition experiment, −20° C. freezer ~24 hours, thawed at room temperature
physchem [7] = conditions: 4 °C, thermodynamic from solid
[8] = Saturated solubility in co-solvent/co-solvent/water mixtures (F3); conditions: 25 °C, pH 5, aqueous buffer, thermodynamic from solid, PF-00835321 Saturated Solubility, pH 5, 5 mM citrate, PEG400 0.75, Ethanol […] v/v
HCOV-229E = experiment: Antiviral activity in MRC-5 cells; assay type: cell-based; conditions: lung cell lines (A549-ACE2 and MRC5)
physchem [9] = conditions: 25 °C, organic solvent or mixture, thermodynamic from solid
Human Cathepsin B = Human Cathepsin B (Homo sapiens, UniProt P07858); experiment: Protease panel; assay type: biochemical
229E-CoV-2 3CLpro = 229E-CoV-2 3CLpro (Human coronavirus 229E, UniProt P0C6X1); experiment: FRET protease activity assay; assay type: biochemical; conditions: Alpha-CoV; [E]T 118 ± 3 nM
[10] = system: BetaCov GHB-03021/2020 strain; experiment: microbe, parasite or virus in culture; assay type: cell-based, SARS-CoV-2; conditions: Severe acute respiratory syndrome coronavirus 2
physchem [11] = conditions: 25 °C, aqueous with cosolvent or surfactant or cyclodextrin, thermodynamic from solid
[12] = system: SARS-CoV-2 (USA_WA1/2020); conditions: for synergy score: isobologram level 0.9
SARS-CoV-2 [13] = experiment: microbe, parasite or virus in culture
cytochrome P450 enzymes = conditions: human, microsomes
[14] = Plasma protein binding by equilibrium dialysis
SARS-CoV-2 USA-WA1/2020 [15] = experiment: In vitro drug efficacy in A549+ACE2 cells; assay type: cell-based
Human Elastase = Human Elastase (Homo sapiens, UniProt P08246); experiment: Protease panel; assay type: biochemical
SARS-CoV-2 [16] = conditions: for Bliss Synergy Score / HSA Synergy Score / Loewe Synergy Score: with Remdesivir; for classification of the combination effect: with remdesivir
CYP3A4/5 = conditions: microsomes
[17] = Assay of CD/co-solvent/water formulations of different compositions over 5 days (F8); conditions: all formulations of Formulation Table F11
SARS-CoV-2 [18] = experiment: Efficacious target concentration and human dose projection; conditions: across a range of in vitro antiviral assays
in vitro = conditions: human
physchem [19] = conditions: 25 °C, pH 5, aqueous buffer, thermodynamic from solid, PF-00835321 Saturated Solubility
VeroE6-enACE2 cells = conditions: African green monkey
[20] = Patient Sera 2, individual value, n 1

Sequence of Human Elastase (P08246 30-247): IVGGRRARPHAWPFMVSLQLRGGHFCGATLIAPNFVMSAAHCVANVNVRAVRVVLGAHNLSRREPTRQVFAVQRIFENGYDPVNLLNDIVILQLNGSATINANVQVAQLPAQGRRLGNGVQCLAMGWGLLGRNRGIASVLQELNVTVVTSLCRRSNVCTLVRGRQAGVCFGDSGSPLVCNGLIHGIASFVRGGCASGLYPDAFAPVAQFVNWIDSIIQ
Sequence of 229E-CoV-2 3CLpro (P0C6X1 2966-3267): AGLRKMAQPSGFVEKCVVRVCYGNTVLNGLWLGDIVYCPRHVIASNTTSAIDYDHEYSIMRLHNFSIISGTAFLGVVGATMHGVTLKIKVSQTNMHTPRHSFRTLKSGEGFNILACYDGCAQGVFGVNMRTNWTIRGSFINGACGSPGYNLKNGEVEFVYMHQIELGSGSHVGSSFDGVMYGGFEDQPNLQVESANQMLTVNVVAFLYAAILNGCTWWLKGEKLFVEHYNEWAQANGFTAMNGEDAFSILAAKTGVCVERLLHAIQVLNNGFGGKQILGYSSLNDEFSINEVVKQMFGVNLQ

COc1cccc2[nH]c(C(=O)N[C@@H](CC(C)C)C(=O)N[C@@H](C[C@@H]3CCNC3=O)C(=O)CO)cc12 [PF-00835231]
SARS-CoV-2 viral infectious titers in apical washes (SARS-CoV-2 USA-WA1/2020 [1]; 10 μM doses): viral titers below the limit of 366 detection at most time points | SARS-CoV-2 viral infectious titers in apical washes (SARS-CoV-2 USA-WA1/2020 [1]; 0.025, 0.5 or 10 μM in basolateral chamber, washes at 12-hour increments): potently inhibit SARS-CoV-2 titers in a dose-dependent manner | EC90 (SARS-CoV-2 USA-WA1/2020 [1]; Severe acute respiratory syndrome coronavirus 2, primary human airway epithelial model, antiviral time course, preliminary data, read-out: unbound EC90): < 500 nM | assay values of filtered formulations over 7 days (FIG. 12) [2]: do not change over 7 days | melting temperature (Tm) of SARS-CoV-2 3CLpro with compound bound (SARS-CoV-2 3CLpro): 70.5+/−0.12 °C | Solid Form at 4° C. (pH 3): No Change-Hydrate | Solid Form at 4° C. (pH 5): No Change-Hydrate | Solid Form at 4° C. (pH 7): No Change-Hydrate | solubility at 25 h (physchem [3]): 200 µg/mL (≈ 423 µM) | EC50 [4]: 184 nM | EC90 [4]: 591 nM | IC50 [5]: > 200000 nM | SFLogD7.4 [6]: 1.7 | visual inspection after freezing and thawing (Freeze-thaw experiment): No particulates were observed in any sample | solubility at 48 h (physchem [7]; pH 3, aqueous buffer): 100 µg/mL (≈ 212 µM) | solubility at 48 h (physchem [7]; pH 5, aqueous buffer): 100 µg/mL (≈ 212 µM) | solubility at 48 h (physchem [7]; pH 7, aqueous buffer): 100 µg/mL (≈ 212 µM) | solubility at 48 h [8]: 100 µg/mL (≈ 212 µM) | difference in antiviral potency in the presence and absence of P-gp inhibitor (HCOV-229E): no significant difference in antiviral potency | solubility at 48 h (physchem [9]): > 45000 µg/mL | margin of activity against human cathepsin B compared to 3CLpro (Human Cathepsin B): 1000 fold | Ki (229E-CoV-2 3CLpro): 1.5 ± 0.8 nM | EC90 [10]: 1600 nM | solubility (physchem [11]): 1700 µg/mL (≈ 3600 µM) | solubility at 48 h (physchem [11]): 1900 µg/mL (≈ 4020 µM) | solubility at 72 h (physchem [11]): 2000 µg/mL (≈ 4230 µM) | cytotoxicity of the combinations [12]: no significant cytotoxicity | synergy score ([12]; combination with azithromycin): 3.76 | synergy score ([12]; combination with remdesivir): 5.1 | EC90 (SARS-CoV-2 [13]; Severe acute respiratory syndrome coronavirus 2, HeLa-ACE2, HELA-ACE2, remdesivir concentration 0): 433 nM | EC90 (SARS-CoV-2 [13]; Severe acute respiratory syndrome coronavirus 2, HeLa-ACE2, HELA-ACE2, remdesivir concentration 48 (nm in FIG. 5A legend)): 123 nM | EC90 (SARS-CoV-2 [13]; Severe acute respiratory syndrome coronavirus 2, HeLa-ACE2, HELA-ACE2, remdesivir concentration 95 (nm in FIG. 5A legend)): 54.5 nM | EC90 (SARS-CoV-2 [13]; Severe acute respiratory syndrome coronavirus 2, HeLa-ACE2, HELA-ACE2, remdesivir concentration 190 (nm in FIG. 5A legend)): < 0.78 nM | unbound CIint (cytochrome P450 enzymes): 14 µL/min/mg | fraction unbound [14]: 0.26 to 0.46 | EC50 (SARS-CoV-2 USA-WA1/2020 [15]; Severe acute respiratory syndrome coronavirus 2, A549-ACE2, 24 h): 221 nM | EC90 (SARS-CoV-2 USA-WA1/2020 [15]; Severe acute respiratory syndrome coronavirus 2, A549-ACE2, 24 h, read-out: EC90): 734 nM | EC50 (SARS-CoV-2 USA-WA1/2020 [15]; Severe acute respiratory syndrome coronavirus 2, A549-ACE2, 48 h): 158 nM | EC90 (SARS-CoV-2 USA-WA1/2020 [15]; Severe acute respiratory syndrome coronavirus 2, A549-ACE2, 48 h, read-out: EC90): 439 nM | EC90 (SARS-CoV-2 USA-WA1/2020 [15]; Severe acute respiratory syndrome coronavirus 2, A549-ACE2, dose response assay in human lung carcinoma cells, read-out: average EC90): 440 nM | IC50 (Human Elastase): > 33300 nM | cytotoxicity in virus infected host cells (SARS-CoV-2 [16]; all the combinations with remdesivir tested): no noticeable cytotoxicity | Bliss Synergy Score (SARS-CoV-2 [16]; Patient Sera 1, average, n 2): 1.60 | HSA Synergy Score (SARS-CoV-2 [16]; Patient Sera 1, average, n 2): 2.51 | Loewe Synergy Score (SARS-CoV-2 [16]; Patient Sera 1, average, n 2): 1.60 | Bliss Synergy Score (SARS-CoV-2 [16]; [20]): (0.366) | HSA Synergy Score (SARS-CoV-2 [16]; [20]): (0.830) | Loewe Synergy Score (SARS-CoV-2 [16]; [20]): (−0.0776) | classification of the combination effect (SARS-CoV-2 [16]; patient #1 sera, 2 independent experiments): synergy | classification of the combination effect (SARS-CoV-2 [16]; sera from patient #2, single experiment): additivity | time dependent inhibition of CYP3A4/5 (CYP3A4/5): weak signal | appearance of solutions after 5 days mixing at 25° C. [17]: remained clear | Hill coefficient (m), slope of the dose response curve (SARS-CoV-2 [18]): 3 | CC50 (in vitro): > 10000 nM | solubility at 48 h (physchem [19]): 200 µg/mL (≈ 423 µM) | CC50 (VeroE6-enACE2 cells): > 100000 nM
